Earlier results in patent US20250213563A1, “SUBSTITUTED PYRIMIDIN-4(3H)-ONES FOR USE IN TREATING CANCER” (NAVIRE PHARMA, INC., priority 2021, published 2025).
“Also recorded” adds a separate entry of the source.

What was measured:
[1] = cited from earlier work
DUSP6 mRNA in tumors = details: at ≥20 mg daily; cited from earlier work
pERK in tumors = details: at ≥20 mg daily; cited from earlier work

For `C[C@@H]1OCC2(CCN(c3cnc(Sc4ccnc(N)c4Cl)c(N)n3)CC2)[C@@H]1N` [TNO-155], the “Human DLTs” value ([1]; comparator SHP2 inhibitors) is given as “LVEF decrease, liver; also recorded: enzyme elevation,; also recorded: diarrhea”, the “Human Half life” value ([1]; comparator SHP2 inhibitors) is given as 35 h and the “Human PD: DUSP6 mRNA inhibition in tumors” value (DUSP6 mRNA in tumors) is given as over 50% DUSP6 mRNA.

In the case of `Cc1nc(N2CCC3(CC2)CO[C@@H](C)[C@H]3N)c(CO)nc1Sc1ccnc(N)c1Cl` [RMC-4630], the “Human PD: pERK inhibition in half of tumors analyzed” value (pERK in tumors) is listed as over 30% pERKinhibition, the “most common AEs” value ([1]; Human DLTs) is listed as “patients; diarrhea,; also recorded: thrombocytopenia,; also recorded: edema are most” and the “patients in whom AEs lead to dose interruption” value ([1]; Human DLTs) is listed as “interruption in 50%”. The “Human Half life” value ([1]; comparator SHP2 inhibitors) was 28 to 33 h.
